The text below walks through data of US6608082B1, “Treatment of erectile dysfunction using isoquinoline compound melanocortin receptor ligands” (Lion Bioscience AG, priority 1998, dated 2003).

The test concerns the target T1, MCR-1 (Homo sapiens, UniProt Q01726).
T1 construct: expressed in transfected cells; host or cells: HEK 293
The test can be described thus: Melanocortin receptor binding assay, competition with 125I-HP 467, HEK 293 cells expressing hMCR-1. The settings on record: for % Disp. MC-1 10 μM: displacement of 125I-HP 467 at 10 μM isoquinoline compound; for % Disp. of 125I-HP 467 (first of duplicate) / % Disp. of 125I-HP 467 (second of duplicate): 10 μM isoquinoline compound; for % Disp. of 125I-HP 467 (first of duplicate): HEK 293 cells expressing MCR-1, duplicate 1; for % Disp. of 125I-HP 467 (second of duplicate): HEK 293 cells expressing MCR-1, duplicate 2; for IC50: read-out: MC-1 IC50. The protocol: All cell culture media and reagents were obtained from GibcoBRL (Gaithersburg Md.), except for COSMIC CALF SERUM (HyClone; Logan Utah).
Cells were suspended in PBS, 10% COSMIC CALF SERUM and 1 mM CaCl2. Cell suspensions were prepared at a density of 2×10^4 cells/ml for HEK 293 cells expressing hMCR-3, hMCR-4 or hMCR-5, and 1×10^5 cells/ml for HEK 293 cells expressing hMCR-1. Suspensions were placed in a water bath and allowed to warm to 37° C. for 1 hr.
Binding assays were performed in a total volume of 250 μl for HEK 293 cells. […] To each tube was added 4×10^3 HEK 293 cells expressing hMCR-3, hMCR-4 or hMCR-5, or 2×10^4 cells expressing hMCR-1. Assays were incubated for 2.5 hr at 37° C.
GF/B filter plates were prepared by soaking for at least one hour in 5 mg/ml BSA and 10 mM CaCl2. Assays were filtered using a Brandel 96-well cell harvester (Brandel Inc.; Gaithersburg, Md.). The filters were washed four times with cold 50 mM Tris, pH 7.4, the filter plates were dehydrated for 2 hr and 35 μl of MICROSCINT was added to each well. Filter plates were counted using a Packard Topcount (Packard Instrument Co.) and data analyzed using GraphPad PRISM v2.0 (GraphPad Software Inc.; San Diego Calif.) and Microsoft EXCEL v5.0a (Microsoft Corp.; Redmond Wash.).
To assay isoquinoline compounds, binding assays were performed in duplicate in a 96 well format. […] A 0.2 ml aliquot of suspended cells was added to each well to give the cell numbers indicate above, and the cells were incubated at 37° C. for 2.5 hr. Cells were harvested on GF/B filter plates as described above and counted.

Setting [1] is: competition with 125I-HP 467, HEK 293 cells expressing MCR-1.
The mark [2] stands for this setting: inhibition of binding of 125I-HP 467, HEK 293 cells expressing MCR-1.

Read-outs that look alike come from different tables or passages of the source.

T1 sequence (Q01726 whole entry): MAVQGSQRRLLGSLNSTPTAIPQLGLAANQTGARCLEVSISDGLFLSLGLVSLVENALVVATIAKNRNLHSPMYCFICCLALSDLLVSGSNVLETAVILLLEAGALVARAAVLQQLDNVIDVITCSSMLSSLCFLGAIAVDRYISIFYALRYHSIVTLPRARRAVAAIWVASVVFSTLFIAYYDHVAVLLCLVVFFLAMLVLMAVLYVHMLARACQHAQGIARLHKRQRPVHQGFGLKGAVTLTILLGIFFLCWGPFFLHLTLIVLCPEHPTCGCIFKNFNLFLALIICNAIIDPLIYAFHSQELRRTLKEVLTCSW

Regarding `NCCN1Cc2ccccc2C(CNC2CCCCC2)C1c1ccccc1` (mixture of isomers) [TRG 2405-1], the “% Disp. MC-1 10 μM” value runs as follows: (first of duplicate) 85.3%; (second of duplicate) 24.1%.
For `CNC(CN)CN1Cc2ccccc2C(CNC2CCCCC2)C1c1ccc2ccccc2n1` (mixture of isomers) [TRG 2405-112] the same measures were 42.2% and 43.2%.
In the case of `CNC(CN)CN1Cc2ccccc2C(CNC2CCCCC2)C1c1cc(C(F)(F)F)cc(C(F)(F)F)c1` (mixture of isomers) [TRG 2405-118], the “% Disp. MC-1 10 μM” value (first of duplicate) is 47.3% and the “% Disp. MC-1 10 μM” value (second of duplicate) came to 58.9%.
On the same counts, the results for `CNC(CN)CN1Cc2ccccc2C(CNC2CCCCC2)C1c1cc(Cl)cc(Cl)c1` (mixture of isomers) [TRG 2405-120] are 52.4% and 54.3%.
On the same counts, the results for `CNC(CN)CN1Cc2ccccc2C(CNC2CCCCC2)C1c1ccc(OC)c(C)c1` (mixture of isomers) [TRG 2405-136] are 49% and 51.8%.
For `CNC(CN)CN1Cc2ccccc2C(CNC2CCCCC2)C1c1ccsc1` (mixture of isomers) [TRG 2405-143] the same measures were 54.6% and 50.4%.
With `CNC(CN)CN1Cc2ccccc2C(CNC2CCCCC2)C1c1ccc(Br)cc1` (mixture of isomers) [TRG 2405-152], the “% Disp. MC-1 10 μM” value is given as 52.8% (first of duplicate) and 52.9% (second of duplicate).
For `CNC(CN)CN1Cc2ccccc2C(CNC2CCCCC2)C1c1ccc([N+](=O)[O-])c(O)c1` (mixture of isomers) [TRG 2405-160] the same measures were 26.1% and 41.7%.
For `CNC(CN)CN1Cc2ccccc2C(CNC2CCCCC2)C1c1ccc([N+](=O)[O-])cc1` (mixture of isomers) [TRG 2405-161] the same measures were 58.4% and 59.1%.
Turning to `CNC(CN)CCCCN1Cc2ccccc2C(CNC2CCCCC2)C1c1ccccc1O` (mixture of isomers) [TRG 2405-182], the “% Disp. of 125I-HP 467 (first of duplicate)” value turned out to be 37.5% and the “% Disp. of 125I-HP 467 (second of duplicate)” value is given as 44.4%.
On the same counts, the results for `CNC(CN)CCCCN1Cc2ccccc2C(CNC2CCCCC2)C1c1ccc2c(c1)OCCO2` (mixture of isomers) [TRG 2405-183] are 58.9% and 64.1%.
On the same counts, the results for `CNC(CN)CCCCN1Cc2ccccc2C(CNC2CCCCC2)C1c1cc(Cl)cc(Cl)c1Cl` (mixture of isomers) [TRG 2405-187] are 64.6% and 59.3%.
On the same counts, the results for `CNC(CN)CCCCN1Cc2ccccc2C(CNC2CCCCC2)C1c1ccc(F)c(F)c1` (mixture of isomers) [TRG 2405-207] are 65% and 65.5%.
Regarding `CNC(CN)CCCCN1Cc2ccccc2C(CNC2CCCCC2)C1c1cccc(Oc2ccc(Cl)c(Cl)c2)c1` (mixture of isomers) [TRG 2405-213], the “% Disp. of 125I-HP 467 (first of duplicate)” value is listed as 80% and the “% Disp. of 125I-HP 467 (second of duplicate)” value came out at 78.1%.
On the same counts, the results for `CNC(CN)CCCCN1Cc2ccccc2C(CNC2CCCCC2)C1c1ccc(OC)c(C)c1` (mixture of isomers) [TRG 2405-226] are 79.1% and 77.7%.
On the same counts, the results for `CNC(CN)CCCCN1Cc2ccccc2C(CNC2CCCCC2)C1c1ccsc1` (mixture of isomers) [TRG 2405-233] are 53.6% and 42.8%.
For `CNC(CN)CCCCN1Cc2ccccc2C(CNC2CCCCC2)C1c1ccc(OC)c2ccccc12` (mixture of isomers) [TRG 2405-248] the same measures were 56.5% and 67.9%.
On to `CNC(CN)CCCCN1Cc2ccccc2C(CNC2CCCCC2)C1c1ccc([N+](=O)[O-])c(O)c1` (mixture of isomers) [TRG 2405-250], for which the “% Disp. of 125I-HP 467 (first of duplicate)” value was 34.7% and the “% Disp. of 125I-HP 467 (second of duplicate)” value amounted to 50.5%.
For `CNC(CN)CCCCN1Cc2ccccc2C(CNC2CCCCC2)C1c1ccc[nH]1` (mixture of isomers) [TRG 2405-265], the “% Disp. of 125I-HP 467 (first of duplicate)” value is 60.5% and the “% Disp. of 125I-HP 467 (second of duplicate)” value is 54.1%.
Take `CNC(CN)CCCCN1Cc2ccccc2C(CNC2CCCCC2)C1c1ccc(S(C)(=O)=O)cc1` (mixture of isomers) [TRG 2405-267]: the “% Disp. of 125I-HP 467 (first of duplicate)” value was found to be 21.5% and the “% Disp. of 125I-HP 467 (second of duplicate)” value was 8.4%.
In the case of `CNC(C)CNC(CN)CCCCN1Cc2ccccc2C(CNC2CCCCC2)C1c1ccc(-c2ccccc2)cc1` (mixture of isomers) [TRG 2411-15], under setting [1], the IC50 (usually the point on the concentration scale where inhibition reaches its midpoint) amounted to 0.73 µM.
Still for that read-out and setting: the same measure for `NCC(CCCCN1Cc2ccccc2C(CN)C1c1ccc(-c2ccccc2)cc1)NCc1ccccc1` (mixture of isomers) [TRG 2411-35]: 0.51 µM.
`CCCCNc1ccc(C2C(CNCCc3ccccc3)c3ccccc3CN2CCCCC(CN)NCCc2ccc(OC)cc2)cc1` (mixture of isomers) [TRG 2411-79]: the IC50 under setting [1] is 0.37 µM.
The same measure, in the same setting: the same measure for `CCCCNc1ccc(C2C(CN)c3ccccc3CN2CCCCC(CN)NCc2ccc(Cl)cc2)cc1` (mixture of isomers) [TRG 2411-108]: 0.16 µM.
Consider `NCC(N)CCCN1Cc2ccccc2C(CN)C1c1ccc(-c2ccccc2)cc1` (mixture of isomers) [TRG 2411-136], for which the half-inhibitory concentration (IC50) under setting [1] was found to be 1.73 µM.
On the same count and under the same terms, then `CNC(C)CNC(CN)CCCN1Cc2ccccc2C(CN)C1c1ccc(-c2ccccc2)cc1` (mixture of isomers) [TRG 2411-142], with 1.28 µM.
In the case of `CCNc1ccc(C2C(CN)c3ccccc3CN2CCCC(N)CN)cc1` (mixture of isomers) [TRG 2411-174], under setting [2], the IC50 is 0.48 µM.
Same read-out and setting: then `CCNc1ccc(C2C(CN)c3ccccc3CN2CCCC(CN)NCC)cc1` (mixture of isomers) [TRG 2411-176], with 0.22 µM; and `CCNc1ccc(C2C(CN)c3ccccc3CN2CCCC(CN)NCCc2ccc3ccccc3c2)cc1` (mixture of isomers) [TRG 2411-185], with 0.1 µM; and `CNC(CN)CCCCN1Cc2ccccc2C(CNCCc2ccccc2)C1c1ccc([N+](=O)[O-])cc1` (mixture of isomers) [TRG 2413-5], with 4.88 µM.
In the case of `NCCN1Cc2ccccc2C(CNC2CCCCC2)C1c1ccccc1O` (centres unmarked) [TRG 2405-2], the “% Disp. MC-1 10 μM” value (first of duplicate) was 42.9% and the “% Disp. MC-1 10 μM” value (second of duplicate) worked out at 40.8%.
On the same counts, the results for `NCCN1Cc2ccccc2C(CNC2CCCCC2)C1c1ccc2c(c1)OCCO2` (centres unmarked) [TRG 2405-3] are 46.8% and 44.2%.
For `NCCN1Cc2ccccc2C(CNC2CCCCC2)C1c1cccc2ccccc12` (centres unmarked) [TRG 2405-5] the same measures were 53.6% and 53.6%.
For `NCCN1Cc2ccccc2C(CNC2CCCCC2)C1c1ccc(F)c(F)c1F` (centres unmarked) [TRG 2405-6] the same measures were 45.7% and 50%.
Consider `NCCN1Cc2ccccc2C(CNC2CCCCC2)C1c1cc(Cl)cc(Cl)c1Cl` (centres unmarked) [TRG 2405-7], for which the “% Disp. MC-1 10 μM” value is given as 50.3% (first of duplicate) and 54.8% (second of duplicate).
For `NCCN1Cc2ccccc2C(CNC2CCCCC2)C1c1cccc2c1OCO2` (centres unmarked) [TRG 2405-8] the same measures were 0% and 26.1%.
For `NCCN1Cc2ccccc2C(CNC2CCCCC2)C1c1cccc(F)c1F` (centres unmarked) [TRG 2405-9] the same measures were 36.4% and 33.4%.
On the same counts, the results for `NCCN1Cc2ccccc2C(CNC2CCCCC2)C1c1ccc(Cl)cc1Cl` (centres unmarked) [TRG 2405-10] are 56.9% and 53%.
In the case of `NCCN1Cc2ccccc2C(CNC2CCCCC2)C1c1c(F)cccc1F` (centres unmarked) [TRG 2405-11], the “% Disp. MC-1 10 μM” value was 45.1% (first of duplicate) and 27% (second of duplicate).
For `NCCN1Cc2ccccc2C(CNC2CCCCC2)C1c1ccccc1Br` (centres unmarked) [TRG 2405-12] the same measures were 38.7% and 41.8%.
On the same counts, the results for `NCCN1Cc2ccccc2C(CNC2CCCCC2)C1c1c(F)cccc1Cl` (centres unmarked) [TRG 2405-14] are 34.2% and 29.6%.
For `NCCN1Cc2ccccc2C(CNC2CCCCC2)C1c1ccccc1CN` (centres unmarked) [TRG 2405-15] the same measures were 23.5% and 52.5%.
